Laboratory results published in PubChem BioAssay AID1259407 (Chemical Carcinogenesis Research Information System (CCRIS), 2018).
The source made the active and inactive calls. The rule behind the calls is not given here.

Test system: CCRIS mutagenicity, Ames/micronucleus/aberration tests
Assay: CCRIS mutagenicity studies
[1] = Test System: AMES SALMONELLA TYPHIMURIUM, Strain/Indicator: TA98, Metabolic Activation: NONE, Method: PREINCUBATION
[2] = Test System: AMES SALMONELLA TYPHIMURIUM, Strain/Indicator: TA100, Metabolic Activation: NONE, Method: PREINCUBATION
[3] = Test System: AMES SALMONELLA TYPHIMURIUM, Strain/Indicator: TA98, Metabolic Activation: NONE, Method: STANDARD PLATE
[4] = Test System: AMES SALMONELLA TYPHIMURIUM, Strain/Indicator: TA100, Metabolic Activation: NONE, Method: STANDARD PLATE

CCN(CC)c1ccc2c(-c3ccccc3C(=O)O)c3ccc(=[N+](CC)CC)cc-3oc2c1
mutagenic call (Test System: AMES SALMONELLA TYPHIMURIUM, Strain/Indicator: TA97, Metabolic Activation: HAMSTER, LIVER, S-9, AROCLOR 1254 (10%), Method: PREINCUBATION): inactive; negative | mutagenic call (Test System: AMES SALMONELLA TYPHIMURIUM, Strain/Indicator: TA97, Metabolic Activation: HAMSTER, LIVER, S-9, AROCLOR 1254 (30%), Method: PREINCUBATION): inactive; negative | mutagenic call (Test System: AMES SALMONELLA TYPHIMURIUM, Strain/Indicator: TA97, Metabolic Activation: NONE, Method: PREINCUBATION): inactive; negative | mutagenic call (Test System: AMES SALMONELLA TYPHIMURIUM, Strain/Indicator: TA97, Metabolic Activation: RAT, LIVER, S-9, AROCLOR 1254 (10%), Method: PREINCUBATION): inactive; negative | mutagenic call (Test System: AMES SALMONELLA TYPHIMURIUM, Strain/Indicator: TA97, Metabolic Activation: RAT, LIVER, S-9, AROCLOR 1254 (30%), Method: PREINCUBATION): inactive; negative | mutagenic call (Test System: AMES SALMONELLA TYPHIMURIUM, Strain/Indicator: TA98, Metabolic Activation: HAMSTER, LIVER, S-9, AROCLOR 1254 (10%), Method: PREINCUBATION): inactive; negative | mutagenic call (Test System: AMES SALMONELLA TYPHIMURIUM, Strain/Indicator: TA98, Metabolic Activation: HAMSTER, LIVER, S-9, AROCLOR 1254 (30%), Method: PREINCUBATION): inactive; negative | mutagenic call [1]: inactive; negative | mutagenic call (Test System: AMES SALMONELLA TYPHIMURIUM, Strain/Indicator: TA98, Metabolic Activation: RAT, LIVER, S-9, AROCLOR 1254 (10%), Method: PREINCUBATION): inactive; negative | mutagenic call (Test System: AMES SALMONELLA TYPHIMURIUM, Strain/Indicator: TA98, Metabolic Activation: RAT, LIVER, S-9, AROCLOR 1254 (30%), Method: PREINCUBATION): inactive; negative | mutagenic call (Test System: AMES SALMONELLA TYPHIMURIUM, Strain/Indicator: TA98, Metabolic Activation: RAT, LIVER, S-9, BETA-NAPHTHOFLAVONE AND PHENOBARBITAL, Method: PREINCUBATION): active; positive | mutagenic call (Test System: AMES SALMONELLA TYPHIMURIUM, Strain/Indicator: TA100, Metabolic Activation: HAMSTER, LIVER, S-9, AROCLOR 1254 (10%), Method: PREINCUBATION): inactive; negative | mutagenic call (Test System: AMES SALMONELLA TYPHIMURIUM, Strain/Indicator: TA100, Metabolic Activation: HAMSTER, LIVER, S-9, AROCLOR 1254 (30%), Method: PREINCUBATION): inactive; negative | mutagenic call [2]: inactive; negative | mutagenic call (Test System: AMES SALMONELLA TYPHIMURIUM, Strain/Indicator: TA100, Metabolic Activation: RAT, LIVER, S-9, AROCLOR 1254 (10%), Method: PREINCUBATION): inactive; negative | mutagenic call (Test System: AMES SALMONELLA TYPHIMURIUM, Strain/Indicator: TA100, Metabolic Activation: RAT, LIVER, S-9, AROCLOR 1254 (30%), Method: PREINCUBATION): inactive; negative | mutagenic call (Test System: AMES SALMONELLA TYPHIMURIUM, Strain/Indicator: TA1535, Metabolic Activation: HAMSTER, LIVER, S-9, AROCLOR 1254 (5%), Method: PREINCUBATION): inactive; negative | mutagenic call (Test System: AMES SALMONELLA TYPHIMURIUM, Strain/Indicator: TA1535, Metabolic Activation: HAMSTER, LIVER, S-9, AROCLOR 1254 (10%), Method: PREINCUBATION): inactive; negative | mutagenic call (Test System: AMES SALMONELLA TYPHIMURIUM, Strain/Indicator: TA1535, Metabolic Activation: HAMSTER, LIVER, S-9, AROCLOR 1254 (30%), Method: PREINCUBATION): inactive; negative | mutagenic call (Test System: AMES SALMONELLA TYPHIMURIUM, Strain/Indicator: TA1535, Metabolic Activation: NONE, Method: PREINCUBATION): inactive; negative | mutagenic call (Test System: AMES SALMONELLA TYPHIMURIUM, Strain/Indicator: TA1535, Metabolic Activation: RAT, LIVER, S-9, AROCLOR 1254 (5%), Method: PREINCUBATION): inactive; negative | mutagenic call (Test System: AMES SALMONELLA TYPHIMURIUM, Strain/Indicator: TA1535, Metabolic Activation: RAT, LIVER, S-9, AROCLOR 1254 (10%), Method: PREINCUBATION): inactive; negative | mutagenic call (Test System: AMES SALMONELLA TYPHIMURIUM, Strain/Indicator: TA1535, Metabolic Activation: RAT, LIVER, S-9, AROCLOR 1254 (30%), Method: PREINCUBATION): inactive; negative | mutagenic call (Test System: AMES SALMONELLA TYPHIMURIUM, Strain/Indicator: TA1537, Metabolic Activation: HAMSTER, LIVER, S-9, AROCLOR 1254 (10%), Method: PREINCUBATION): inactive; negative | mutagenic call (Test System: AMES SALMONELLA TYPHIMURIUM, Strain/Indicator: TA1537, Metabolic Activation: NONE, Method: PREINCUBATION): inactive; negative | mutagenic call (Test System: AMES SALMONELLA TYPHIMURIUM, Strain/Indicator: TA1537, Metabolic Activation: RAT, LIVER, S-9, AROCLOR 1254 (10%), Method: PREINCUBATION): inactive; negative | mutagenic call (Test System: AMES SALMONELLA TYPHIMURIUM, Strain/Indicator: TA1538, Metabolic Activation: NONE, Method: STANDARD PLATE): inactive; negative | mutagenic call (Test System: AMES SALMONELLA TYPHIMURIUM, Strain/Indicator: TA1538, Metabolic Activation: RAT, LIVER, S-9, AROCLOR 1254, Method: STANDARD PLATE): inactive; negative | mutagenic call (Test System: CHINESE HAMSTER V-79, Strain/Indicator: V-79/6-THIOGUANINE, Metabolic Activation: NONE, Method: SUSPENSION/PLATE): inactive; negative | mutagenic call (Test System: CHINESE HAMSTER V-79, Strain/Indicator: V-79/6-THIOGUANINE, Metabolic Activation: RAT, LIVER, S-9, PHENOBARBITAL AND BETA-NAPHTHOFLAVONE, Method: SUSPENSION/PLATE): inactive; negative

COC(=O)CN(N=O)C(N)=O
mutagenic call (Test System: E. COLI B, Strain/Indicator: H/R30R, Metabolic Activation: NONE): active; positive | mutagenic call (Test System: E. COLI B, Strain/Indicator: HS30R, Metabolic Activation: NONE): active; positive

N[C@@H]1CCCCN1.[Cl][Pt][Cl]
mutagenic call [1]: active; positive | mutagenic call [2]: active; positive | mutagenic call (Test System: AMES SALMONELLA TYPHIMURIUM, Strain/Indicator: TA100, Metabolic Activation: RAT, LIVER, S-9, AROCLOR 1254, Method: PREINCUBATION): active; positive

ClCc1cc2cccc3ccc4cc5ccccc5c1c4c32
mutagenic call [3]: active; positive | mutagenic call [4]: active; positive

c1ccc2c(c1)ncc1cnc3ccccc3c12
mutagenic call [3]: inactive; negative | mutagenic call (Test System: AMES SALMONELLA TYPHIMURIUM, Strain/Indicator: TA98, Metabolic Activation: RAT LIVER S-9, AROCLOR 1254, Method: STANDARD PLATE): inactive; negative | mutagenic call (Test System: E.COLI, Strain/Indicator: WP2, Metabolic Activation: NONE, Method: SPOT TEST): inactive; negative | mutagenic call (Test System: E.COLI, Strain/Indicator: WP2 UVRA, Metabolic Activation: NONE, Method: STANDARD PLATE): inactive; negative | mutagenic call (Test System: E.COLI, Strain/Indicator: WP2 UVRA, Metabolic Activation: R, L, S-9, AROCLOR 1254, Method: STANDARD PLATE): inactive; negative | mutagenic call (Test System: ESCHERICHIA COLI, Strain/Indicator: WP2 UVR A, Metabolic Activation: NONE, Method: STANDARD PLATE): inactive; negative | mutagenic call (Test System: ESCHERICHIA COLI, Strain/Indicator: WP2 UVR A, Metabolic Activation: RAT LIVER S-9, AROCLOR 1254, Method: STANDARD PLATE): inactive; negative

CC(C)CC(=O)N=c1sn(C(=O)CC(C)C)c2ccc([N+](=O)[O-])cc12
mutagenic call (Test System: AMES SALMONELLA TYPHIMURIUM, Strain/Indicator: TA100, Metabolic Activation: S-9, Method: STANDARD PLATE): active; positive

CN(C)CCNC(=O)c1cccc2c(=O)c3ccccc3sc12
mutagenic call (Test System: AMES SALMONELLA TYPHIMURIUM, Strain/Indicator: TA1537, Metabolic Activation: NONE, Method: STANDARD PLATE): active; positive

CC(F)(Cl)Cl
mutagenic call (End Point: IN VIVO MICRONUCLEUS, Test System: BONE MARROW, Species: RAT, Strain/Sex: SPRAGUE-DAWLEY/FEMALE, Route: INHALATION): inactive; negative | mutagenic call (End Point: IN VIVO MICRONUCLEUS, Test System: BONE MARROW, Species: RAT, Strain/Sex: SPRAGUE-DAWLEY/MALE, Route: INHALATION): active; positive

C1=C\CC/C=C\CC/1.Nc1ccccc1.[Cl-].[Rh]
mutagenic call (Test System: AMES SALMONELLA TYPHIMURIUM, Strain/Indicator: TA2410, Metabolic Activation: NONE, Method: STANDARD PLATE): inactive; negative

CO[C@]1(CC[C@@H](C)CO[C@@H]2O[C@H](CO)[C@@H](O)[C@H](O)[C@H]2O)O[C@H]2C[C@H]3[C@@H]4CC=C5C[C@@H](O[C@@H]6O[C@H](CO)[C@@H](O)[C@H](O[C@@H]7O[C@H](CO)[C@@H](O)[C@H](O)[C@H]7O)C6O[C@@H]6O[C@@H](C)[C@H](O)[C@@H](O)[C@H]6O)CC[C@]5(C)[C@H]4CC[C@]3(C)[C@H]2[C@@H]1C (stereo partly drawn)
mutagenic call [3]: inactive; negative | mutagenic call (Test System: AMES SALMONELLA TYPHIMURIUM, Strain/Indicator: TA98, Metabolic Activation: RAT, LIVER, S-9, PHENOBARBITAL, Method: STANDARD PLATE): inactive; negative | mutagenic call [4]: inactive; negative | mutagenic call (Test System: AMES SALMONELLA TYPHIMURIUM, Strain/Indicator: TA100, Metabolic Activation: RAT, LIVER, S-9, PHENOBARBITAL, Method: STANDARD PLATE): inactive; negative
